The text below walks through data of US20230416240A1, “KAT6 TARGETING COMPOUNDS” (Prelude Therapeutics Incorporated, priority 2022, published 2023).

A value given as a limit tells only on which side of the number the result lay.

T1 sequence (Q92794 whole entry): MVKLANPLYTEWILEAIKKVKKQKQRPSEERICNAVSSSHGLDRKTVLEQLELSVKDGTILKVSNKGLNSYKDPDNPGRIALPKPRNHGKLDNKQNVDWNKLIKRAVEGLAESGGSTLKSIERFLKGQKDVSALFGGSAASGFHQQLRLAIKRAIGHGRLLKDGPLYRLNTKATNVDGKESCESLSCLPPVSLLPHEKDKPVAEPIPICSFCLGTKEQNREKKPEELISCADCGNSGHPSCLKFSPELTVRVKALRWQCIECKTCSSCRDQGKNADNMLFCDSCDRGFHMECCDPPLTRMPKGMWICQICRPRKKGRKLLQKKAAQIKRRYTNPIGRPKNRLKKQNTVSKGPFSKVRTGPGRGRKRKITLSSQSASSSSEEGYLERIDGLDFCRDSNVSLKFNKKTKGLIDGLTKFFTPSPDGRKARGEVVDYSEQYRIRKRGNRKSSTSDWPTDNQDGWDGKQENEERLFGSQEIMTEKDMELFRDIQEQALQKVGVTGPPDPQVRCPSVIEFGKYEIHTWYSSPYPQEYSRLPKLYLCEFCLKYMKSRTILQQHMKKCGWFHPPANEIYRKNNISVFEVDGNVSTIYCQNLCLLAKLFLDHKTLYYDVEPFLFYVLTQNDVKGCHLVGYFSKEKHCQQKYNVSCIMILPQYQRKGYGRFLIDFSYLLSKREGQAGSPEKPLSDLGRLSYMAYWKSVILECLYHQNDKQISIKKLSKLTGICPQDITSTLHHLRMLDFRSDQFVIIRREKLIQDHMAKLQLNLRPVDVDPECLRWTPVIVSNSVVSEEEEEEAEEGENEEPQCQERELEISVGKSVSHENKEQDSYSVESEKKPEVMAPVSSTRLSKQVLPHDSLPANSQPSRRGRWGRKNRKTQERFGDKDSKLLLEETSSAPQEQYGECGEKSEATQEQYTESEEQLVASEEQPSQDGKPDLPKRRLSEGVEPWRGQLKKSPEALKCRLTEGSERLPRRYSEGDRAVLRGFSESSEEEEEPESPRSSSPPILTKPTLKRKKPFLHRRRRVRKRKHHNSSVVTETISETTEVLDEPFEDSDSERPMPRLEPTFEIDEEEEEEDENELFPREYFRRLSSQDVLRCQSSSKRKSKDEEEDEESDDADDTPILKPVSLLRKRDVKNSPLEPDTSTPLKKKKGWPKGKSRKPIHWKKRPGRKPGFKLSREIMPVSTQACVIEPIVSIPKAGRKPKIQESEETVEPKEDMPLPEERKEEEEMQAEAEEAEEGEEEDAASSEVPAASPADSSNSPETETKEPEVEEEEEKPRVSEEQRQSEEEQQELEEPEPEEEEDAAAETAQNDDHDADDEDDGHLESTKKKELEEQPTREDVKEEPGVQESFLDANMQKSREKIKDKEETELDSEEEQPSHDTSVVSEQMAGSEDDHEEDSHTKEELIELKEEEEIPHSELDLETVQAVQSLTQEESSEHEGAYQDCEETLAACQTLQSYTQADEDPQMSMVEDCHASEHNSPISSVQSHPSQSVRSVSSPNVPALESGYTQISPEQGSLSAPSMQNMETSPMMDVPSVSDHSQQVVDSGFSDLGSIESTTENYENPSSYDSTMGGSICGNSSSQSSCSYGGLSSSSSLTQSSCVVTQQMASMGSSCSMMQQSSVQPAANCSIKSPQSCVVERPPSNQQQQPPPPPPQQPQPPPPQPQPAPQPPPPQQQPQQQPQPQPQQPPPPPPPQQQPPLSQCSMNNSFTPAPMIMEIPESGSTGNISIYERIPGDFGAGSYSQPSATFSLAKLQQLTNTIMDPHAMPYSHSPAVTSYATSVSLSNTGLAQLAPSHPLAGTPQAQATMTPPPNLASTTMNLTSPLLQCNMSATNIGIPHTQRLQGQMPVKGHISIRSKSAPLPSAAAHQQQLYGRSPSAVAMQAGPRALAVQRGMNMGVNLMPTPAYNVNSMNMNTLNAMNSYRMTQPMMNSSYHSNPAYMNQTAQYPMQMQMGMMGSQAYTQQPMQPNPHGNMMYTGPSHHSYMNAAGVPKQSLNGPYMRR

This experiment addresses T1, HiBit tagged KAT6A (Homo sapiens, UniProt Q92794).
T1 construct: host or cells: HeLa
In words: HiBit KAT6A Degradation Assessment. The following applies: HeLa cells with HiBit tagged KAT6A, 18 h of treatment, 9-point serial dilution. The experiment is classed as cell-based. As to the method: The degradation activity of compounds was evaluated by measuring levels of KAT6A protein using the HiBiT system. These studies were conducted in HeLa cells with a HiBit tagged KAT6A. Cells were maintained in a 37° C. incubator at 5% CO2 in EMEM (ATCC, 30-2003) supplemented with 10% v/v FBS (Gibco, 26140-079) and 1% penicillin streptomycin. Cells were seeded in 384-well plates at a density of 2,000 cells/well. Compounds dissolved in DMSO were added in 9-point serial dilution. After 18 h of treatment, KAT6A levels were measured using the Nano-Glo® HiBiT Lytic Detection System (Promega catalog number N3030) per manufacturer's instructions. Luminescence signal was measured with a multimode plate reader (Envision 2105, Perkin Elmer). Luminescence values were normalized to background and DMSO controls to quantify KAT6A for each condition. Results were analyzed, and DC50 and Dmax values obtained using a four-parameter logistic curve fit.
For orientation: DC50 means the concentration at which degradation of the target reaches its halfway point. A higher DC50 goes with degradation only at high concentration. One may read the Dmax as the largest share of the target that was removed. As to `COc1cc(Cn2cccn2)cc2onc(NS(=O)(=O)c3cccc(N4CC5(CCN(CC6(C)CCN(c7ccc8c(c7)C(=O)N(C7CCC(=O)NC7=O)C8=O)C6)CC5)C4)c3)c12` (stereo not shown) [Example 12, N-(6-((1H-Pyrazol-1-yl)methyl)-4-methoxybenzo[d]isoxazol-3-yl)-3-(7-((1-(2-(2,6-dioxopiperidin-3-yl)-1,3-dioxoisoindolin-5-yl)-3-methylpyrrolidin-3-yl)methyl)-2,7-diazaspiro[3.5]nonan-2-yl)benzenesulfonamide], the DC50 is < 10 nM and the Dmax lay within 50 to 75%.
`COc1cc(Cn2cccn2)cc2onc(NS(=O)(=O)c3cccc(N4CC5(CCN(CC6(F)CCN(c7ccc8c(c7)C(=O)N(C7CCC(=O)NC7=O)C8=O)C6)CC5)C4)c3)c12` (stereo not shown) [Example 13, N-(6-((1H-Pyrazol-1-yl)methyl)-4-methoxybenzo[d]isoxazol-3-yl)-3-(7-((1-(2-(2,6-dioxopiperidin-3-yl)-1,3-dioxoisoindolin-5-yl)-3-fluoropyrrolidin-3-yl)methyl)-2,7-diazaspiro[3.5]nonan-2-yl)benzenesulfonamide] registered a DC50 of 10 to 100 nM and a Dmax of 50 to 75%.
In the case of `COc1cc(Cn2cccn2)cc2onc(NS(=O)(=O)c3cccc(N4CCC5(CC4)CN(C[C@@H]4CCN(c6ccc7c(c6)C(=O)N(C6CCC(=O)NC6=O)C7=O)C4)C5)c3)c12` (stereo partly drawn) [Example 14, N-(6-((1H-Pyrazol-1-yl)methyl)-4-methoxybenzo[d]isoxazol-3-yl)-3-(2-(((3S)-1-(2-(2,6-dioxopiperidin-3-yl)-1,3-dioxoisoindolin-5-yl)pyrrolidin-3-yl)methyl)-2,7-diazaspiro[3.5]nonan-7-yl)benzenesulfonamide], the DC50 is < 10 nM and the Dmax was in the range of 50 to 75%.
With `COc1cc(Cn2cccn2)cc2onc(NS(=O)(=O)c3cccc(N4CCC5(CCN(C[C@@H]6CCN(c7ccc8c(c7)C(=O)N(C7CCC(=O)NC7=O)C8=O)C6)CC5)C4)c3)c12` (stereo partly drawn) [Example 15, N-(6-((1H-Pyrazol-1-yl)methyl)-4-methoxybenzo[d]isoxazol-3-yl)-3-(8-(((3S)-1-(2-(2,6-dioxopiperidin-3-yl)-1,3-dioxoisoindolin-5-yl)pyrrolidin-3-yl)methyl)-2,8-diazaspiro[4.5]decan-2-yl)benzenesulfonamide], the DC50 is < 10 nM and the Dmax lay within 50 to 75%.
For the molecule `COc1cc(Cn2cccn2)cc2onc(NS(=O)(=O)c3cccc(N4CC5(CCN(C[C@@H]6CCN(c7ccc8c(c7)C(=O)N(C7CCC(=O)NC7=O)C8=O)C6)CC5)C4)c3)c12` (stereo partly drawn) [Example 16, N-(6-((1H-Pyrazol-1-yl)methyl)-4-methoxybenzo[d]isoxazol-3-yl)-3-(7-(((3S)-1-(2-(2,6-dioxopiperidin-3-yl)-1,3-dioxoisoindolin-5-yl)pyrrolidin-3-yl)methyl)-2,7-diazaspiro[3.5]nonan-2-yl)benzenesulfonamide], the DC50 was < 10 nM and the Dmax was > 75%.
In turn, `COc1cc(Cn2cccn2)cc2onc(NS(=O)(=O)c3cccc(N4CCN(CCOC5CCN(c6ccc7c(c6)C(=O)N(C6CCC(=O)NC6=O)C7=O)CC5)CC4)c3)c12` (stereo not shown) [Example 17, N-(6-((1H-Pyrazol-1-yl)methyl)-4-methoxybenzo[d]isoxazol-3-yl)-3-(4-(2-((1-(2-(2,6-dioxopiperidin-3-yl)-1,3-dioxoisoindolin-5-yl)piperidin-4-yl)oxy)ethyl)-piperazin-1-yl)benzenesulfonamide] had a Dmax of 25 to 50%.
Still for that read-out and setting: as for `COc1cc(Cn2cccn2)cc2onc(NS(=O)(=O)c3cccc(N4CCN(CC5CN(c6ccc7c(c6)C(=O)N(C6CCC(=O)NC6=O)C7=O)CCO5)CC4)c3)c12` (stereo not shown) [Example 18, N-(6-((1H-Pyrazol-1-yl)methyl)-4-methoxybenzo[d]isoxazol-3-yl)-3-(4-((4-(2-(2,6-dioxopiperidin-3-yl)-1,3-dioxoisoindolin-5-yl)morpholin-2-yl)methyl)piperazin-1-yl)benzenesulfonamide], the figure is 25 to 50%.
For `COc1cc(Cn2cccn2)cc2onc(NS(=O)(=O)c3cccc(N4CCN(CC5CC6(CCN(c7ccc8c(c7)C(=O)N(C7CCC(=O)NC7=O)C8=O)CC6)C5)CC4)c3)c12` (stereo not shown) [Example 19, N-(6-((1H-Pyrazol-1-yl)methyl)-4-methoxybenzo[d]isoxazol-3-yl)-3-(4-((7-(2-(2,6-dioxopiperidin-3-yl)-1,3-dioxoisoindolin-5-yl)-7-azaspiro[3.5]nonan-2-yl)methyl)piperazin-1-yl)benzenesulfonamide], the DC50 was in the range of 10 to 100 nM and the Dmax fell in the range of 50 to 75%.
Consider `COc1cc(Cn2cccn2)cc2onc(NS(=O)(=O)c3cccc(N4CCC5(CCN(CC6CCN(c7ccc8c(c7)C(=O)N(C7CCC(=O)NC7=O)C8=O)C6)CC5)CC4)c3)c12` (stereo not shown) [Example 20, N-(6-((1H-Pyrazol-1-yl)methyl)-4-methoxybenzo[d]isoxazol-3-yl)-3-(9-((1-(2-(2,6-dioxopiperidin-3-yl)-1,3-dioxoisoindolin-5-yl)pyrrolidin-3-yl)methyl)-3,9-diazaspiro[5.5]undecan-3-yl)benzenesulfonamide], for which the DC50 is < 10 nM and the Dmax was > 75%.
In turn, `COc1cc(Cn2cccn2)cc2onc(NS(=O)(=O)c3cccc(N4CCN(CC5CCN(c6ccc7c(c6)C(=O)N(C6CCC(=O)NC6=O)C7=O)C5)C(C)(C)C4)c3)c12` (stereo not shown) [Example 21, N-(6-((1H-Pyrazol-1-yl)methyl)-4-methoxybenzo[d]isoxazol-3-yl)-3-(4-((1-(2-(2,6-dioxopiperidin-3-yl)-1,3-dioxoisoindolin-5-yl)pyrrolidin-3-yl)methyl)-3,3-dimethylpiperazin-1-yl)benzenesulfonamide] returned a DC50 of 100 to 1000 nM and a Dmax of 50 to 75%.
Regarding `COc1cc(Cn2cccn2)cc2onc(NS(=O)(=O)c3cccc(N4CC5(CCN(C6CC7(CCN(c8ccc9c(c8)C(=O)N(C8CCC(=O)NC8=O)C9=O)C7)C6)CC5)C4)c3)c12` (stereo not shown) [Example 22, N-(6-((1H-Pyrazol-1-yl)methyl)-4-methoxybenzo[d]isoxazol-3-yl)-3-(7-(6-(2-(2,6-dioxopiperidin-3-yl)-1,3-dioxoisoindolin-5-yl)-6-azaspiro[3.4]octan-2-yl)-2,7-diazaspiro[3.5]nonan-2-yl)benzenesulfonamide], the DC50 is < 10 nM and the Dmax fell in the range of 50 to 75%.
`COc1cc(Cn2cccn2)cc2onc(NS(=O)(=O)c3cccc(N4CCC(CN5CCC(Oc6ccc7c(c6)C(=O)N(C6CCC(=O)NC6=O)C7=O)CC5)C4)c3)c12` (stereo not shown) [Example 23, N-(6-((1H-Pyrazol-1-yl)methyl)-4-methoxybenzo[d]isoxazol-3-yl)-3-(3-((4-((2-(2,6-dioxopiperidin-3-yl)-1,3-dioxoisoindolin-5-yl)oxy)piperidin-1-yl)methyl)pyrrolidin-1-yl)benzenesulfonamide] returned a Dmax of 25 to 50%.
As for `COc1cc(Cn2cccn2)cc2onc(NS(=O)(=O)c3cccc(N4CCN(C(=O)C5CCN(c6ccc7c(c6)C(=O)N(C6CCC(=O)NC6=O)C7=O)C5)CC4)c3)c12` (stereo not shown) [Example 24, N-(6-((1H-pyrazol-1-yl)methyl)-4-methoxybenzo[d]isoxazol-3-yl)-3-(4-(1-(2-(2,6-dioxopiperidin-3-yl)-1,3-dioxoisoindolin-5-yl)pyrrolidine-3-carbonyl)piperazin-1-yl)benzenesulfonamide], the Dmax was ≤ 25%.
